Results on seven compounds are retold here after patent publication US7635720B2, “Prostaglandin analog compositions to treat epithelial-related conditions” (Meta Cosmetics, LLC, priority 2007, dated 2009).

SMILES strings stand for the structures. Values joined by “and” are separate entries in the source; they are usually repeats but may differ in a detail not shown here. Equal values may be shown once. “Also recorded” adds a separate entry of the source.

For series [1], the system named is eyelashes. Put plainly: Use for restoring eyelashes: transparent gel applied nightly at the skin-eyelash border, volunteers. In kind it is in vivo, human. The text has this:
In one embodiment, the composition of the present invention is a transparent gel formulated according to Table 2. The formulation comprises water, at least one prostaglandin analog according to the present invention (concentration about 0.001% to about 0.05% w/w of the composition); a thickener, optionally a hair stimulating agent; caffeine, and at least one penetrating agent and the pH adjusted to 7.2. The gel is applied as a fine line at the skin-eyelash border every night on clean dry eyes. The gel is aqueous enough to spread to the hair follicles but thick enough not to drip.
In another embodiment, the composition is a transparent gel formulated to comprise at least one of 16-phenoxy PGF2α cyclopropyl amide; 17-phenyl trinor PGF2α cyclopropyl amide; 16-phenoxy PGF2α cyclopropyl methyl amide; or 17-phenyl trinor PGF2α cyclopropyl methyl amide (concentration about 0.001% to about 0.05% w/w of the composition) plus the following ingredients (Table 3):
(§1) Test formulations contained either 0.025% or 0.05% 16-phenoxy PGF2α cyclopropyl amide. The formulation containing 0.025% 16-phenoxy PGF2α cyclopropyl amide was used on the left side, and the formulation containing 0.05% 16-phenoxy PGF2α cyclopropyl amide was used on the right side. Test formulations were given randomly to volunteers without consideration of coloration of eyelashes, race, ethnicity or sex.

Series [2] in a line: Bovine cornea hydrolysis assay. In kind it is in vitro ADME. Conditions: for % Hydrolyzed after 12 hr (negative control): PBS pH 7.4 only, no cornea, 37° C.; for % Hydrolyzed after 12 hr, Avg: average of cornea samples 1-3; for % Hydrolyzed after 12 hr: one bovine cornea in 10 ml PBS pH 7.4, 37° C., 250 μg compound, individual cornea samples 1-3. The source says:
A bovine cornea hydrolysis test system (K. M. Maxey, et al., “The Hydrolysis of Bimatoprost in Corneal Tissue Generates a Potential Prostanoid FP Receptor Agonist,” Survey of Ophthalmology, 47 (Suppl 1):S34-40 (2002)) has been used to determine whether four test compounds of the present invention, namely 16-phenoxy PGF2α cyclopropyl amide; 17-phenyl trinor PGF2α cyclopropyl amide; 16-phenoxy PGF2α cyclopropyl methyl amide; and 17-phenyl trinor PGF2α cyclopropyl methyl amide, react similarly to bimatoprost in this test system.
Bovine corneas are excised within 1-2 hour of death. For each compound tested, one cornea (0.6 g) is placed into an 18 mm×150 mm glass test tube containing 10 ml of phosphate-buffered saline (“PBS”) at pH 7.4. The compound of interest (250 μg in about 120 μl ethanol) is added to each test tube containing a cornea and to a tube containing only 10 ml of PBS (no cornea), which served as a negative control. Test tubes are covered with parafilm and incubated at 37° C. with shaking.
After the first time point, a 5 ml aliquot is removed from each test tube and transferred into another marked test tube. The remaining material continues to incubate at 37° C. until subsequent test time point(s) is/are reached. For each test tube, 1.0 ml of 5% KHSO4 is added to bring the pH down to about 3 and sufficient NaCl is added to saturate the solution; the solution then is extracted three times with 80% ethyl acetate-hexane. The solvent is evaporated under nitrogen, dissolved in 200 μl of 80% ethyl acetate-hexane, and the 200 μl sample then transferred to a 2 ml screw cap vial. Samples are stored at −20° C. until run on an HPLC column.
After the second time point, the cornea is removed from each experimental test tube. For each test tube, 1.0 ml of 5% KHSO4 is added to bring the pH down to about 3 and sufficient NaCl added to saturate the solution; the solution then is extracted three times with 80% ethyl acetate-hexane. The solvent is evaporated under nitrogen, dissolved in 200 μl of 80% ethyl acetate-hexane, and the 200 μl sample then transferred to 2 ml screw cap vials. Samples are stored at −20° C. until they are run on an HPLC column.
For HPLC, samples are run on a Beckman Ultrasphere ODS analytical C18 HPLC column (5μ, 4.6 mm×25 cm) at 1 ml/min using either 60:40:0.1 or 70:30:0.1 methanol:water:acetic acid as solvent. Absorbance is monitored at 210 nm.

The next series concerns eyebrows. Briefly: Use for restoring eyebrows: transparent gel applied nightly at the browbone, volunteers. Format: in vivo, human.
Text: A composition prepared according to the present invention is formulated as a transparent gel as described in the two described embodiments of Example 2. The formulation comprises water, at least one prostaglandin analog according to the present invention (concentration about 0.001% to about 0.05% w/w of the composition); a thickener, optionally a hair stimulating agent; caffeine, and at least one penetrating agent and the pH adjusted to 7.2. The gel is applied by brush as a line at the browbone every night on clean, oil-free brows in the absence of makeup. The gel is sufficiently aqueous to spread to the hair follicles but thick enough not to drip.
as §1

The test system of series [3] is eyelashes. The note with it: background statement; cited from earlier work.
The mark [4] stands for this setting: 0.025% formulation left, 0.05% right.
Setting [5] is: gel 0.025% / 0.05% nightly, single subject.

For `O=C(CCC/C=C\C[C@@H]1[C@@H](/C=C/[C@@H](O)COc2ccccc2)[C@H](O)C[C@@H]1O)NC1CC1` [16-phenoxy PGF2α cyclopropyl amide, 16-phenoxy tetranor PGF2α cyclopropyl amide], in the series on eyelashes [1] (setting [4]), the “left side (0.025%) versus right side (0.05%), eyelashes” value is listed as “no significant difference; also recorded: Right side was faster to grow; also recorded: Subject thought right side was better; also recorded: Subject thought left side was better”. Also, the “increase in eyelash length” value with eyelashes [1] (gel 0.025% (left) / 0.05% (right) nightly, single subject, final result or time not given) is “about 55% and approximately 80% and approximately 45% and 50% and 45% and approximately 60% and 100% and 45-50%”; in the series with eyelashes [1] (gel 0.025% / 0.05% nightly, single subject, 3 weeks) it was 40% and 30%; in the series with eyelashes [1] (gel 0.025% / 0.05% nightly, single subject, 4 weeks), “about 50% and 50% and approximately 60%”; with eyelashes [1] (gel 0.025% / 0.05% nightly, single subject, 5 weeks), “Approximately 60%; also recorded: about 100%; also recorded: approximately 45%”; in the series on eyelashes [1] (gel 0.025% / 0.05% nightly, single subject, 6 weeks), 100% and ~45% and 50%; in the series on eyelashes [1] (gel 0.025% / 0.05% nightly, single subject, after two months) it was “approximately 55%”. In the series on eyelashes [1] (setting [5]), the “eyelash appearance (in words)” value is “darker, fuller and showed an upward curving angle of growth; also recorded: much thicker, fuller, longer and curvier than before use; also recorded: Lashes grew so much that by week 4 the test was discontinued because eyelashes were too long; also recorded: darker, fuller, and longer; also recorded: thicker and darker and curled upwards; also recorded: much thicker after 2 weeks; also recorded: much darker, thicker; also recorded: darker, and curved upwards; also recorded: longer, thicker and darker; also recorded: bushy, very thick, dark; also recorded: eyelashes had grown to the point of clear visibility below lids; also recorded: darker, thicker and lashes curled up; also recorded: darker and more upturned; also recorded: Noticeable improvement after 4 weeks even without mascara”. The “time by which increase in eyelash length / growth was obvious” value with eyelashes [1] (setting [5]) is “about 3 weeks and ≤ 3 weeks and ≤ 2 weeks”. For the same compound, in the series with eyelashes [1] (setting [5]), the “time to some thickening of eyelashes” value was no more than 10 days. For the same compound, the “increase in numbers of eyelashes” value with eyelashes [1] (gel 0.025% / 0.05% nightly, single subject, final or peak result) was 60% and 30% and 50%. Further, the “increase in eyelash thickness” value in the series on eyelashes [1] (gel 0.025% / 0.05% nightly, single subject, final result) is “approximately doubled and approximately 60% and 100% and ~100%”. In the series on eyelashes [1] (subjects with dry eye), the “tolerability of the product” value is reported as “tolerated the product well”. In series [2], the “% Hydrolyzed after 12 hr (negative control)” value worked out at 0%. The “% Hydrolyzed after 12 hr, Avg” value in series [2] was found to be 1.78%. In addition, in series [2], the “% Hydrolyzed after 12 hr” value was 2.0% and 1.89% and 1.44%. The “left side (0.025%) versus right side (0.05%), eyebrows” value in the series on eyebrows (setting [4]) is reported as “no significant difference”. In the series on eyebrows (gel 0.025% (left) / 0.05% (right) nightly, single subject), the “eyebrow hair result (in words)” value is “noticeable increase in number of hairs and color after 2 weeks; also recorded: Hairs started to fill in”.
Regarding `O=C(CCC/C=C\C[C@@H]1[C@@H](/C=C/[C@@H](O)COc2ccccc2)[C@H](O)C[C@@H]1O)NCC1CC1` [16-phenoxy tetranor PGF2α cyclopropyl methyl amide], in series [2], the “% Hydrolyzed after 12 hr (negative control)” value worked out at 0%; the “% Hydrolyzed after 12 hr, Avg” value is 1.22%; the “% Hydrolyzed after 12 hr” value is 1.28% and 1.18% and 1.2%.
As for `O=C(CCC/C=C\C[C@@H]1[C@@H](/C=C/[C@@H](O)CCc2ccccc2)[C@H](O)C[C@@H]1O)NCC1CC1` [17 phenyl trinor PGF2α cyclopropyl methyl amide], in series [2], the “% Hydrolyzed after 12 hr (negative control)” value is reported as 0%; the “% Hydrolyzed after 12 hr, Avg” value was 0.91%; the “% Hydrolyzed after 12 hr” value is 0.83% and 0.8% and 1.1%.
`O=C(CCC/C=C\C[C@@H]1[C@@H](/C=C/[C@@H](O)CCc2ccccc2)[C@H](O)C[C@@H]1O)NC1CC1` [17-phenyl trinor PGF2α cyclopropyl amide, 17 phenyl trinor PGF2α cyclopropylamide]: in series [2], the “% Hydrolyzed after 12 hr (negative control)” value is reported as 0%; the “% Hydrolyzed after 12 hr, Avg” value worked out at 1.82%; the “% Hydrolyzed after 12 hr” value is 1.31% and 2.0% and 2.15%.
Turning to `CCNC(=O)CCC/C=C\C[C@@H]1[C@@H](/C=C/[C@@H](O)CCc2ccccc2)[C@H](O)C[C@@H]1O` [Bimatoprost, cyclopentane N-ethyl heptenamide-5-cis-2-(3α-hydroxy-5-phenyl-1-trans-pentenyl)-3,4-dihydroxy, [1α, 2β, 3α, 5α]], in the series with eyelashes [3], the “effect on eyelash growth (in words)” value was “effective to increase the growth of eyelashes”; the incidence of hyperemia entry is listed as “highest incidence of hyperemia”; the negative side effects entry was “redness and discoloration along the periocular skin; eye irritation; and foreign body sensation”.
On to `CC(C)OC(=O)CCC/C=C\C[C@@H]1[C@@H](CC[C@@H](O)CCc2ccccc2)[C@H](O)C[C@@H]1O` [Latanoprost], for which the “effect on eyelash growth (in words)” value in the series on eyelashes [3] is reported as “works poorly on eyelashes”.
`CC(C)OC(=O)CCC/C=C\C[C@@H]1[C@@H](/C=C/[C@@H](O)COc2cccc(C(F)(F)F)c2)[C@H](O)C[C@@H]1O` [Travaprost, isopropyl (Z)-7-[(1R,2R,3R,5S)-3,5-dihydroxy-2-[(1E,3R)-3-hydroxy-4-[(α,α,α-trifluoro-m-tolyl)oxy]-1-butenyl]cyclopentyl]-5-heptenoate]: in the series on eyelashes [3], the “effect on eyelash growth (in words)” value was “does not work well for eyelash growth, taking longer than other like products”.
